# In ChEMBL document CHEMBL1201862, “PubChem BioAssay data set” (2004):
# Calls of active or inactive are those of the source.
# Key:
# [1] = NIH-3T3 fibroblast cytotoxicity, dose response, cytotoxicity control, cell-based, fluorescence, Alamar Blue, secondary assay (AID 2327); assay type: functional;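 also: NIH-3T3 mouse fibroblasts cultured with fluconazole at 8 µg/mL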
# [2] = C. albicans growth with fluconazole, confirmation, fluorescence, retest (AID 2467); assay type: functional, cell-based
# Cytochrome P450 2C19 = Cytochrome P450 2C19 (Homo sapiens, UniProt P33261); test: Cytochrome panel assay with activity outcomes. Panel member name: p450-cyp2c19 Compounds with AC50 equal or less than 10 uM are considered active; assay type: functional
# cells [3] = assay type: functional, cell-based
# cells [4] = assay type: functional, cell-based; remark: listed apart in the source
# Nonstructural protein 1 = Nonstructural protein 1 (Influenza A virus, UniProt Q194T2); assay type: functional, Influenza A virus (A/California/07/2009(H1N1))
# [5] = target: T1, Ubiquitin-conjugating enzyme E2 N (Homo sapiens, UniProt P61088); assay type: functional;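 also: Dose-response confirmation in a TR-FRET assay detecting UBC13-driven polyubiquitin chain formation, inhibition measured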
# T1 sequence (P61088 whole entry): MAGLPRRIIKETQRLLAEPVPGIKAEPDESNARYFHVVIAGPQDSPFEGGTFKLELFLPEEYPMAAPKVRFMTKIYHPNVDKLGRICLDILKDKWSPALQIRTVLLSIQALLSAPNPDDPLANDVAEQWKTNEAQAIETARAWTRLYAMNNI
# Genome polyprotein = Genome polyprotein (dengue virus type 2, UniProt P29990); test: Dengue-2 NS5 methyltransferase inhibitors, primary screen, biochemical, confirmation dose response (AID 588689); assay type: functional
# [6] = HEp-2 cell cytotoxicity, dose response, cytotoxicity control for RSV inhibitor project, HTS (AID 2410); assay type: functional; settings: human respiratory syncytial virus
# [7] = microbe, parasite or virus in culture; assay type: functional; settings: Mycobacterium tuberculosis
# BJ [8] = test: cytotoxicity toward BJ-TERT-LT-ST fibroblasts, dose response, cell-based, RAS-independent, luminescence (AID 1935); assay type: functional; settings: Homo sapiens;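 also: BJ fibroblasts immortalized with TERT plus LT and ST oncogenes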
# [9] = cytotoxicity toward DRD oncogenic fibroblasts, dose response, cell-based, non-viral oncogenic, luminescence (AID 1934); assay type: functional; settings: Homo sapiens
# BJ [10] = test: cytotoxicity toward BJ-TERT fibroblasts, dose response, cell-based, RAS-independent, luminescence (AID 1933); assay type: functional; settings: Homo sapiens
# BJ [11] = test: cells; assay type: functional, cell-based; settings: Homo sapiens
# [12] = target: T2, Polyadenylate-binding protein 1 (Homo sapiens, UniProt P11940); test: PABP1 MLLE–PAM2 binding inhibitor potency, dose response, biochemical, fluorescence polarization, FITC-PAM2 peptide (AID 602259); assay type: functional; settings: read-out: IC50_Mean
# [13] = target: T2, Polyadenylate-binding protein 1; test: PABP1 MLLE–PAM2 interaction inhibitors, dose response, miRNA deadenylation inhibitor project, biochemical, fluorescence polarization, Cy5-PAM2 peptide, secondary (AID 602260); assay type: functional; settings: read-out: IC50_Mean
# [14] = growth suppression of PTEN-null colon cells, dose response, cell-based, HCT116 PTEN knockout (AID 1047); assay type: functional;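 also: HCT116 colon tumor cells with PTEN knocked out; cells exposed to compound for 60 hours before readout; potency for loss of cell viability measured by luminescence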
# [15] = target: Glyceraldehyde-3-phosphate dehydrogenase (Homo sapiens, UniProt P04406)
# Cytochrome P450 2D6 = Cytochrome P450 2D6 (Homo sapiens, UniProt P10635);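 also: CYP2D6 member of a cytochrome P450 panel assay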
# Cytochrome P450 2C9 = Cytochrome P450 2C9 (Homo sapiens, UniProt P11712)
# [16] = target: FAD-linked sulfhydryl oxidase ALR (Homo sapiens, UniProt P55789); test: inhibitors of human ALR sulfhydryl oxidase, dose response, biochemical, H2O2 detection, luminescence, cherry-pick (AID 493248)
# Cytochrome P450 3A4 = Cytochrome P450 3A4 (Homo sapiens, UniProt P08684);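 also: CYP3A4 tested as one member of a cytochrome P450 panel screen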
# Sequence of Cytochrome P450 3A4 (P08684 whole entry): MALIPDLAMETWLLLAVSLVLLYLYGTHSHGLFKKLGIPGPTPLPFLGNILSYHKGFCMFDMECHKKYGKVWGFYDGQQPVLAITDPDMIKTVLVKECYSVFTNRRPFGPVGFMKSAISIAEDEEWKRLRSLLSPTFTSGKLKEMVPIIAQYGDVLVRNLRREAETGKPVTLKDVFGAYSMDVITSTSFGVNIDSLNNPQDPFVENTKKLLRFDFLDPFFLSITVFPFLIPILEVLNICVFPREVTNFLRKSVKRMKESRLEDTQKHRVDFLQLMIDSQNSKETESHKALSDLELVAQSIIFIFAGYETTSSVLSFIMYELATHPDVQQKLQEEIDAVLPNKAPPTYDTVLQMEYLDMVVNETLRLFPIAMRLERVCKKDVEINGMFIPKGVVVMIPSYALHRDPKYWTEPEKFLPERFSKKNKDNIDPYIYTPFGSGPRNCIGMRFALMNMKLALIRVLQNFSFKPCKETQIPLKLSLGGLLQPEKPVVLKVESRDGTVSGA
# T2 sequence (P11940 whole entry): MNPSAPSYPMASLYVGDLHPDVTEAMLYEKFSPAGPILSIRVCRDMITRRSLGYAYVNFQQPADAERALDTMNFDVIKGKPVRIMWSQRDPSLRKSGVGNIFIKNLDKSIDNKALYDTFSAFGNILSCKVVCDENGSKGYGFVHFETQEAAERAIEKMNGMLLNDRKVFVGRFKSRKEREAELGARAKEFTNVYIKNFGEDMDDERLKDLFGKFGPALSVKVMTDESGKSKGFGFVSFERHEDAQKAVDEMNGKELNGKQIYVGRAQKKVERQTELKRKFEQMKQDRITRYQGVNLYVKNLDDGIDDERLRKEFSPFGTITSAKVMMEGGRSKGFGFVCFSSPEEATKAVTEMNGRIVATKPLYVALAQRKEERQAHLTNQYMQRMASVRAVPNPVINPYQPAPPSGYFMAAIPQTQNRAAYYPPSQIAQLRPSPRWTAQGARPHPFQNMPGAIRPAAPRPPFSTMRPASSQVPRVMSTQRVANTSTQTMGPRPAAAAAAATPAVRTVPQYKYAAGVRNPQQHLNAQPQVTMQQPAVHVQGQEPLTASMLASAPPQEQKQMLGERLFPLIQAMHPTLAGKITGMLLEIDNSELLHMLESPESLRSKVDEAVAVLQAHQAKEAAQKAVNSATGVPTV
# Sequence of Cytochrome P450 2C19 (P33261 whole entry): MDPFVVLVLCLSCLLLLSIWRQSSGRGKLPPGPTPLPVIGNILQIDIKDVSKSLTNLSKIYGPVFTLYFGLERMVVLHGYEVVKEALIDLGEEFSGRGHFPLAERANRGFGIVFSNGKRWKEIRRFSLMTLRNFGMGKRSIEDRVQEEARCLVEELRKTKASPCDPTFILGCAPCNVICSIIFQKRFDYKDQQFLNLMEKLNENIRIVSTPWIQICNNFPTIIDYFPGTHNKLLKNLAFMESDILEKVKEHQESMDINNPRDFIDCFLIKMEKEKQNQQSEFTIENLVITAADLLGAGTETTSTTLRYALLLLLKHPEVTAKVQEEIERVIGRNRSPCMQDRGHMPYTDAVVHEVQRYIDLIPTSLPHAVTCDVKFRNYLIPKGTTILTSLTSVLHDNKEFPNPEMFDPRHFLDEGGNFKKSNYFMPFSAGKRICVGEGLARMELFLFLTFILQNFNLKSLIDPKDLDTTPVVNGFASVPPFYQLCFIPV
# Sequence of Nonstructural protein 1 (Q194T2 whole entry): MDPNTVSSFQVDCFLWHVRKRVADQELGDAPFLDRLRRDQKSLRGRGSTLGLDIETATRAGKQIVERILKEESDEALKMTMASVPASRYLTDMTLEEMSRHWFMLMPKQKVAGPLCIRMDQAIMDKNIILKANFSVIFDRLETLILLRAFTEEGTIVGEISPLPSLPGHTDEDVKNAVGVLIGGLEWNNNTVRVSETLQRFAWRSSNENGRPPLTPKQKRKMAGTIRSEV
# Sequence of FAD-linked sulfhydryl oxidase ALR (P55789 whole entry): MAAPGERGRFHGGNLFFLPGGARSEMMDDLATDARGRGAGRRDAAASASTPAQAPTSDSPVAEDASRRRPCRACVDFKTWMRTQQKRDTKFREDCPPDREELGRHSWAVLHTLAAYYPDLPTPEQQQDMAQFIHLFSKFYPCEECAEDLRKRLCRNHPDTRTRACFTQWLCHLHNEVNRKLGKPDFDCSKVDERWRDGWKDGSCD
# Sequence of Genome polyprotein (P29990 2492-3391 limits assumed): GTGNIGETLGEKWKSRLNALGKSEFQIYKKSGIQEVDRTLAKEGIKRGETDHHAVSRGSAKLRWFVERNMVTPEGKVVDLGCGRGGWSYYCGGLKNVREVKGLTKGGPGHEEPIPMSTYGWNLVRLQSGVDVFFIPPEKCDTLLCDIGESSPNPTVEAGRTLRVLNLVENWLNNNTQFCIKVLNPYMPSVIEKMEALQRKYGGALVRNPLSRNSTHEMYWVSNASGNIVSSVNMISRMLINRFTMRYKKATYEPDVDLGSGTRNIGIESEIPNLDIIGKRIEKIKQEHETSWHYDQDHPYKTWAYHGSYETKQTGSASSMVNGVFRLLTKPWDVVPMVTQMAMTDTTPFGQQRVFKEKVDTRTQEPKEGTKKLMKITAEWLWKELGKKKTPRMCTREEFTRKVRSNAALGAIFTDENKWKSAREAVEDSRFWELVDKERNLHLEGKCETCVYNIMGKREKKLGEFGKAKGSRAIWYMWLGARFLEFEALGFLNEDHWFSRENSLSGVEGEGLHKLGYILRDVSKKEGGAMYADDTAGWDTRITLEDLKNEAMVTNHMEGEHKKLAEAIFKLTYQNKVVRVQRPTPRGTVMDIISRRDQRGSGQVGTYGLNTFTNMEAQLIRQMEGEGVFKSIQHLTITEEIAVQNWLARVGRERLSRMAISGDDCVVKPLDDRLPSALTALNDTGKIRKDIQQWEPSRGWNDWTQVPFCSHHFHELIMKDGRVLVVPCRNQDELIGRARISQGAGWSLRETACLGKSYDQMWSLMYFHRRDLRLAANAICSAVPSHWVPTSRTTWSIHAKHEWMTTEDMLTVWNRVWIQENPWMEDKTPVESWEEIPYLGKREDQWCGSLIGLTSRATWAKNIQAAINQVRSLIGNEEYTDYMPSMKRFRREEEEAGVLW
# Sequence of Cytochrome P450 2D6 (P10635 whole entry): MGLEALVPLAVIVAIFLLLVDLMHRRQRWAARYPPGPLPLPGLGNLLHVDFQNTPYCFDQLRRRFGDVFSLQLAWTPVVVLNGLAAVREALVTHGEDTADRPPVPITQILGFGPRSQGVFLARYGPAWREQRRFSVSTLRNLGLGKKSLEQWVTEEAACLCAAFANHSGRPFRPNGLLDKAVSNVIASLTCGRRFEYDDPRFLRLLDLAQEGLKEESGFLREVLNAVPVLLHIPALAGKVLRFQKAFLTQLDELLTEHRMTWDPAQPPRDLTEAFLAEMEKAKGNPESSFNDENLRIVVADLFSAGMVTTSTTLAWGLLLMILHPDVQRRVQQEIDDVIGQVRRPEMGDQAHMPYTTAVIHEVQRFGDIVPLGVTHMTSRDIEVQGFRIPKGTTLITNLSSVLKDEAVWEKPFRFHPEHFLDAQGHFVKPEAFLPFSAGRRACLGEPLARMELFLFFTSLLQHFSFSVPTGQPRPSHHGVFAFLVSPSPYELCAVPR
# Sequence of Glyceraldehyde-3-phosphate dehydrogenase (P04406 whole entry): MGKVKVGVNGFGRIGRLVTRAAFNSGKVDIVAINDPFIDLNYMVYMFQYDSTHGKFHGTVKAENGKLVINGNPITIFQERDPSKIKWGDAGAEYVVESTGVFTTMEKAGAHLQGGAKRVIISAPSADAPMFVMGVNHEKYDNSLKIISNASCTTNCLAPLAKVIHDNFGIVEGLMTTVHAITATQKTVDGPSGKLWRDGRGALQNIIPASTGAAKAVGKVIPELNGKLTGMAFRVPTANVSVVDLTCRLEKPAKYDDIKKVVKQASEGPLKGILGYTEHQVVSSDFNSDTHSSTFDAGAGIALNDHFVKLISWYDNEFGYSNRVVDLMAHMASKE
# Sequence of Cytochrome P450 2C9 (P11712 whole entry): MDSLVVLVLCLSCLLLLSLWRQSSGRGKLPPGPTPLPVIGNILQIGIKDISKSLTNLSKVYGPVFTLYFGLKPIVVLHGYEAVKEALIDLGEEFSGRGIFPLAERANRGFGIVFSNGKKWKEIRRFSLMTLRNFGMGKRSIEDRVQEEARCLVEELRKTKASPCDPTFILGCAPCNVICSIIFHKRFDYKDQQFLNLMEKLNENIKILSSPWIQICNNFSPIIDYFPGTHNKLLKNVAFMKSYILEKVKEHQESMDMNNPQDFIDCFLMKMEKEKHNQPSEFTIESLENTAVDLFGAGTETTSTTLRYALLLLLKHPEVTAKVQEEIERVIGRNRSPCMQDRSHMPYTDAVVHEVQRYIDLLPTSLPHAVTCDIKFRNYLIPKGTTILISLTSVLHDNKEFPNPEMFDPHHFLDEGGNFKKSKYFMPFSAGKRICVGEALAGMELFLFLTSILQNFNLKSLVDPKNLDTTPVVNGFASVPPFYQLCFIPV
smiles,measurement,setting,value
Cc1ccc(NC(=O)NNC(=O)c2cc3ccccc3cc2O)cc1C,EC50,[1],> 160 µM (inactive)
same,EC50,[2],> 38 µM (not active)
CN(C)c1ccc(-c2cc(NCc3cccnc3)ncn2)cc1,AC50,Cytochrome P450 2C19,39.8 µM (inconclusive)
CCC(NCc1cc(OC)cc(OC)c1)=C1C(=O)NC(=O)NC1=O,EC50,cells [3],> 350 µM (not active)
same,EC50,cells [4],> 350 µM (not active)
Cc1ccc(S(=O)(=O)CCc2nnc(NC(=O)c3ccccn3)s2)cc1,IC50,Nonstructural protein 1,10.2 µM (active)
O=C(NCCCN1CCOCC1)c1ccc2c(=O)n(Cc3cccc(Br)c3)c(=S)[nH]c2c1,IC50,[5],> 20 µM (inactive)
O=C(C1CCCN(S(=O)(=O)c2cccc3nonc23)C1)N1CCN(c2ccccc2Cl)CC1 (stereo unspecified),IC50,Nonstructural protein 1,> 100 µM (active)
COC(=O)CCCC1=CC2=CC(=O)C(C)(OC(=O)c3cccs3)C(=O)C2=CN1Cc1ccc2c(c1)OCO2 (stereo unspecified),EC50,cells [3],> 350 µM (not active)
same,EC50,cells [4],> 350 µM (not active)
CC1=NOC(=O)/C1=C/c1ccc2c(c1)OCO2,IC50,Genome polyprotein,11.6 µM (active)
Cc1cc(Cl)n2nc(C)c(-c3ccc(Cl)cc3)c2n1,EC50,[1],> 150 µM (inactive)
same,EC50,[2],> 38 µM (not active)
same,CC50,[6],27.6 µM (active)
O=C(NNC(=O)C1CCN(S(=O)(=O)c2ccc(Cl)cc2)CC1)c1ccc(S(=O)(=O)N2CCCCC2)cc1,IC50,[5],> 20 µM (inactive)
NS(=O)(=O)c1ccc(CNC(=O)c2csc3c2CCCC3)cc1,EC50,cells [3],> 350 µM (not active)
same,EC50,cells [4],> 350 µM (not active)
Cc1cccc2c1-c1sc(C(=O)Nc3ccccc3N3CCN(C)CC3)cc1CO2,CC50,[7],18.8 µM (active)
O=C(CSc1nc[nH]n1)NCCc1ccc(Cl)cc1Cl,EC50,cells [3],> 350 µM (not active)
same,EC50,cells [4],149 µM (active)
NC(=O)c1cc2c3ccccc3ccn2c1-c1ccccc1,EC50,BJ [8],5.08 µM (inconclusive)
same,EC50,[9],0.244 µM (active)
same,EC50,BJ [10],0.305 µM (active)
same,EC50,BJ [11],27.4 µM (inconclusive)
same,IC50,[12],32.2 µM (inactive)
same,IC50,[13],> 66 µM (inactive)
O=C(NCCCc1ccccc1)Nc1cccc(Cl)c1,EC50,[14],43.5 µM (active)
same,EC50,[1],> 150 µM (inactive)
same,EC50,[2],> 38 µM (not active)
COc1nnc(-c2ccccc2)s1,IC50,[12],> 66 µM (inactive)
same,IC50,[13],> 66 µM (inactive)
COc1cc(OC)c2c(-c3ccccc3)cc(=O)oc2c1C(CCN1CCCC(C)C1)c1ccc(N(C)C)cc1 (stereo unspecified),IC50,Nonstructural protein 1,11.4 µM (active)
O=C(c1ccccc1)c1ccc(Oc2ccc(C(=O)O)c(C(=O)O)c2)cc1,IC50,[15],> 100 µM (not active)
COc1ccc(Oc2ncc3nc(C)c(=O)n(Cc4cccs4)c3n2)cc1,AC50,Cytochrome P450 2D6,25.1 µM (inconclusive)
same,AC50,Cytochrome P450 2C19,39.8 µM (inconclusive)
same,AC50,Cytochrome P450 2C9,39.8 µM (inconclusive)
O=C1/C(=C\c2cccnc2)SC(=S)N1C1CCS(=O)(=O)C1 (stereo unspecified),EC50,BJ [8],> 150 µM (not active)
same,EC50,[9],20.4 µM (active)
same,EC50,BJ [10],22.5 µM (active)
same,EC50,BJ [11],> 150 µM (inconclusive)
same,EC50,[2],0.479 µM (active)
COc1cc(/C=C2\SC(=S)N(C(C(=O)O)c3ccccc3)C2=O)cc(OC)c1OC (stereo unspecified),IC50,Genome polyprotein,> 100 µM (active)
Cc1ccc(OC(=O)COc2ccccc2C)c(-n2nc3ccccc3n2)c1,IC50,[12],> 66 µM (inactive)
same,IC50,[13],> 66 µM (inactive)
CC1CCc2sc(-c3nnc(S)o3)cc2C1 (stereo unspecified),AC50,[16],1.2 µM (active)
CC(=O)Nc1cccc(NC(=O)CSc2nn3c(=O)c(C)nnc3s2)c1,IC50,Nonstructural protein 1,9.96 µM (active)
Cc1cc2cc(C=O)c(Cl)nc2cc1C,AC50,Cytochrome P450 2D6,7.08 µM (inconclusive)
same,AC50,Cytochrome P450 3A4,10 µM (inconclusive)
same,AC50,Cytochrome P450 2C19,0.0708 µM (inconclusive)
Cn1c(N)c(N2CCN(c3ccccc3)CC2)c(=O)[nH]c1=O,AC50,[16],3.9 µM (active)
COc1cccc(N2CCN(C3=C(Cl)C(=O)N(c4cccc(C(F)(F)F)c4)C3=O)CC2)c1,IC50,[15],> 50 µM (inconclusive)
